One series concerns the target T1, PKN1 (Protein kinase N1) (Homo sapiens, UniProt Q16512).
T1 construct: purchased Eurofins-DiscoverX
In words: scanMax kinome panel, PKN1. It counts as binding. Particulars: 200 nM CP612; read-out: scanMax % of control, PKN1. The procedure: CP612 was screened for kinome specificity at 200 nM against 468 kinases using the scanMax assay panel from Eurofins-DiscoverX. CP612 inhibited 10 other WT kinases besides PKCε, all to < 10% of control: CLK1 (CDC Like Kinase 1), CLK4, PKN1 (Protein kinase N1), PKN2, PKCδ, PKCη, PKCθ, PRKG2 (Protein Kinase CGMP-Dependent 2), ROCK1, and ROCK2.

Series [1] can be described thus: Plasma protein binding, equilibrium dialysis (RED). It counts as in vitro ADME, human. The following applies: for recovery at 4 h, 10 µM: Rapid Equilibrium Dialysis (RED) device. How it is done: Plasma protein binding. Binding of CP612 to human plasma proteins was measured by equilibrium dialysis using a Rapid Equilibrium Dialysis (RED) Device (Thermo Fisher Scientific). The device uses plates with wells preloaded with equilibrium dialysis membrane inserts, each of which includes 2 side-by-side chambers separated by a dialysis membrane. […] All compounds were tested in triplicate. […] A total of 200 μL of diluted test compound was then added to the plasma chambers of triplicate wells of a 48-sample RED plate (Thermo Fisher Scientific). In total, 400 μL of 0.1M PBS buffer were added to each buffer chamber. The plate was sealed with adhesive foil and incubated at 37°C with shaking for 4 hours, after which 30 μL were removed from each chamber and diluted with either 30 μL of plasma (for buffer chamber samples) or 30 μL of 0.1M PBS (for plasma chamber samples). Samples were extracted with 3 volumes of acetonitrile, centrifuged at 16,000g at 4°C for 10 minutes, and analyzed by LC-MS to calculate the amount of drug in each chamber. The percentage of free compound was calculated as the concentration in the buffer chamber/concentration in the plasma chamber × 100%. The percentage of protein-bound compound was calculated as 100% – the percentage of free compound.

Where “and” joins values, the source holds several entries; their conditions need not be identical. Identical values can stand only once. Like-named read-outs stand apart in the source and are kept apart here. Where only a bound is given, the exact number is not on record here.

T1 sequence (Q16512 whole entry): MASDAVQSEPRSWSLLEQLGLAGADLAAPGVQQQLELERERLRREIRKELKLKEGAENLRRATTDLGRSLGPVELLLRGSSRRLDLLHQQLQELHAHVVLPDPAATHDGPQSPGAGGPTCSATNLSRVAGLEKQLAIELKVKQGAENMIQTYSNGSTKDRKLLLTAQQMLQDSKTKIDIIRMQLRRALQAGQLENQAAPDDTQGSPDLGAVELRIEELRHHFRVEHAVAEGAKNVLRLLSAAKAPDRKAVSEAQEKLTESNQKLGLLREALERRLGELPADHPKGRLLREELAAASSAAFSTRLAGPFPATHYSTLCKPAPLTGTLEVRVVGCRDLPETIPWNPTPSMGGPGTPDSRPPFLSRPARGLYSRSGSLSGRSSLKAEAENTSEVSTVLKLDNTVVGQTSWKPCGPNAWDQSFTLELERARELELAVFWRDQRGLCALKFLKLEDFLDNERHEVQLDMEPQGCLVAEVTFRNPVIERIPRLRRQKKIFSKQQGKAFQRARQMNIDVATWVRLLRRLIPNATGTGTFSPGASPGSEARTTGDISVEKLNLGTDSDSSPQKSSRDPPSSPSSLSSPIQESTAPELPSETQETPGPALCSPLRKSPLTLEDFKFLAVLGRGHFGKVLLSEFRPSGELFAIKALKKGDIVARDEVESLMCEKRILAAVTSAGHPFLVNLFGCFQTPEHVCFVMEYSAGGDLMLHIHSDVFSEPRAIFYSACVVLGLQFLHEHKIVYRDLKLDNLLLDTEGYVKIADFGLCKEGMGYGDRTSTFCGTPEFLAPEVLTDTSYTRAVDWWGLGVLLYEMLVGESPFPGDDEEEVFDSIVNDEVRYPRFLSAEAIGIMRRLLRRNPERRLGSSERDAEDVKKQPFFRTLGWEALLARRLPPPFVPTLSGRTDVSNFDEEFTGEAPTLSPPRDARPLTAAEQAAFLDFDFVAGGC

Consider `N[C@H](CNC(=O)C1(c2ccc(Cl)cc2)CCCC1)c1ccc(C(=O)Nc2ccncc2)cc1` [CP612], for which the remaining binding at 0.2 µM on PKN1 (Protein kinase N1) is under 10%. The “% Free” value in series [1] ((Corrected concentration in PBS / Corrected concentration in Plasma) * 100, individual replicates) was 9.57% and 8.99%. The “% Recovery” value in series [1] (PBS + Plasma relative to starting concentration of 10 uM, individual replicates) was 52.74% and 59.65%. For the same compound, the “% Absolute (Sample_PBS)” value in series [1] (PBS compartment, relative to starting concentration of 10 uM, individual replicates) is 6.46% and 4.60% and 4.92%. Also, the fraction unbound at 4 h, 10 μM in series [1] (human plasma, individual replicates, read-out: % Bound (converted)) is 0.121; in series [1] (human, human plasma, 37°C, 4 hours, read-out: Plasma protein binding (% bound) (converted)), 0.102; in series [1] (human, plasma, (Corrected concentration in PBS / Corrected concentration in Plasma) * 100, individual replicates, read-out: % Free) it was 0.121; in series [1] (human, plasma, mean of replicates, read-out: % Bound, Mean (converted)), 0.102; in series [1] (human, plasma, mean of replicates, read-out: % Free, Mean), 0.102. In addition, the recovery at 4 h, 10 µM in series [1] (human, human plasma, PBS + Plasma relative to starting concentration of 10 uM, individual replicates, read-out: % Recovery) was 59.9%; in series [1] (human, human plasma, PBS + Plasma relative to starting concentration of 10 uM, mean of replicates, read-out: % Recovery, Mean), 57.4%. In addition, the “% Bound” value in series [1] (individual replicates) is 90.43% and 91.01%. The “% Absolute (Sample_Plasma)” value in series [1] (plasma compartment, relative to starting concentration of 10 uM, individual replicates) was 53.46% and 48.13% and 54.72%.

These data come from article PMC12016938, “A small molecule PKCε inhibitor reduces hyperalgesia induced by paclitaxel or opioid withdrawal” (JCI Insight, 2025).
